Assay results published in US12594339B2, “Lipid prodrugs of JAK inhibitors and uses thereof” (Seaport Therapeutics, Inc., priority 2019, dated 2026).

What was measured:
[1] = target: T1, porcine pancreatic lipase (Sus scrofa, UniProt P00591); experiment: In vitro hydrolysis by porcine pancreatic lipase in simulated intestinal micellar solution; assay type: in vitro ADME; conditions: for In vitro hydrolysis: acid intermediates: HPLC-MS; for In vitro hydrolysis: conversion to monoglyceride form / In vitro hydrolysis: fate of the monoglyceride: simulated intestinal micellar solution, 37° C., 0-180 min
T1 construct: dispersion of 1 g porcine pancreatin in 5 ml of lipolysis buffer; from tissue; host or cells: porcine pancreatin (pancreas extract), supernatant after centrifugation
T1 sequence (P00591 1-450): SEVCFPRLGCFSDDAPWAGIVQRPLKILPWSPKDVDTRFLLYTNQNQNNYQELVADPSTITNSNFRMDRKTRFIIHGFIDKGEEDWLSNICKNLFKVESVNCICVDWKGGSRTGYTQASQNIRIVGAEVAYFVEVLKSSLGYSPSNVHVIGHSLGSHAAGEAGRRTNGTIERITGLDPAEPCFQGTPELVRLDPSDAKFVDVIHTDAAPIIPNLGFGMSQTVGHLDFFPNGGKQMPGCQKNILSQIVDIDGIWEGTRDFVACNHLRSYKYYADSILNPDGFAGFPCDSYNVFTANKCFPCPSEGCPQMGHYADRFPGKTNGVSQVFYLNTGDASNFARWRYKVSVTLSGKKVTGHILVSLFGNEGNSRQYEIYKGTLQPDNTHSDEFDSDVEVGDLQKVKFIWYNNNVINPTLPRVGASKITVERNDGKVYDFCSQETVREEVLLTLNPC
T1 sequence (P02703 23-112 partner): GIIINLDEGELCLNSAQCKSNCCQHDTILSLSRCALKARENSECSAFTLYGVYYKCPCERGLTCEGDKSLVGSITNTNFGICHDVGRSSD
Description: Hydrolysis of test compounds in vitro was performed via incubation with porcine pancreatic lipase. This provides a more reproducible source of pancreatic enzymes, facilitates enhanced experimental throughput, and is also a greater challenge than collected rat enzymes (as described below, since enzyme activity in rat intestinal fluid is low). Briefly, pancreatic lipase solution was prepared prior to the hydrolysis experiment by dispersion of 1 g porcine pancreatin in 5 ml of lipolysis buffer and 16.9 μL of 0.5 M NaOH. The suspension was mixed well and centrifuged at 3500 rpm for 15 minutes at 5° C. to provide a supernatant. An amount of 1000 mL of lipolysis buffer was prepared with 0.474 g of tris-maleate (2 mM), 0.206 g of CaCl2·H2O (1.4 mM) and 8.775 g of NaCl (150 mM) adjusted with NaOH to pH 6.5. To assess the potential for prodrug hydrolysis in the intestine, 20 μL of prodrug solution (1 mg/mL dissolved in acetonitrile), 900 μL of simulated intestinal micellar solution [prepared with 0.783 g of NaTDC (3 mM) and 0.291 g of phosphatidyl choline (0.75 mM) in 500 mL lipolysis buffer] and 100 μL of enzyme solution were incubated at 37° C. 20 μL samples of the incubation solution were taken at 0, 5, 10, 15, 30, 60, 90, 120 and 180 minutes post incubation and added to 180 μL of MeCN to stop lipolysis. The mixture was vortexed and centrifuged at 5000 rpm for 5 minutes to precipitate proteins prior to analysis. The supernatant was analyzed by HPLC-MS for residual compound concentrations, and the potential products of compound hydrolysis analyzed.
On incubation with digestive enzymes, the monoglyceride forms of the prodrugs are formed very rapidly. The stability in simulated intestinal conditions is therefore better assessed by the stability of the monoglyceride form that is generated by the initial digestion process. The monoglyceride form should remain intact to be absorbed and re-esterified in the enterocyte prior to entry into the lymphatics. A comparison of the stability profiles of the monoglyceride forms of test compounds during in vitro incubation with porcine pancreatic lipase (or freshly collected rat bile and pancreatic fluid (BPF), as described below) was used to evaluate the influence of linker structure on the stability of the monoglyceride intermediates.

[2] = Lymphatic transport assay in mesenteric lymph-duct cannulated rats; assay type: in vivo, rat; conditions: intraduodenal infusion, anaesthetised mesenteric lymph-duct cannulated rats
Description: In order to assess the lymphatic transport of disclosed lipid prodrugs in rats, the mesenteric lymph ducts of the rats used in this study were cannulated to allow continual collection of mesenteric lymph. Lipid formulations containing the compound of interest were then administered to the animals, lymph was collected, and drug concentrations in the lymph samples were quantified.
Lipid-based formulations of the compounds of the invention or control compounds were prepared as previously described (Trevaskis, N. L. et al., Pharmaceutical Research, 2005, 22(11), 1863-1870, WO 2016/023082, and WO 2017/041139, hereby incorporated by reference).
In brief, either 1 or 2 mg of test prodrug, 40 mg oleic acid and 25 mg Tween 80 were mixed in a glass vial and incubated at 37° C. for 12-18 h to equilibrate. An aqueous phase consisting of 5.6 ml phosphate buffered saline (PBS, pH 7.4) was subsequently added to the lipid phase (tofacitinib was dissolved in PBS for the preparation of tofacitinib-containing formulations) and the formulation emulsified by ultrasonication with a Misonix XL 2020 ultrasonic processor (Misonix, Farmingdale, NY, USA) equipped with a 3.2-mm microprobe tip running at 30% of the maximal amplitude of 240 μm and a frequency of 20 kHz for 2 min at room temperature. Doses for administering to more than one animal can be prepared in one batch by suitably increasing the quantities given above. Drug/prodrug concentrations in all formulations were verified using HPLC-MS.
Male Sprague-Dawley (SD) rats were selected for the lymphatic transport studies. Rats (typically 240-320 g) were maintained on a standard diet and fasted overnight with free access to water prior to experiments.
Anesthetized rats were placed on a heated pad at 37° C. and cannulas inserted into the duodenum (for formulation administration and rehydration), mesenteric lymph duct (for lymph collection), and carotid artery (in cases where blood collection was conducted). Post-surgery, rats were re-hydrated for 0.5 h via intraduodenal infusion of normal saline at 2.8 mL/h. The lipid formulations were infused into the duodenum at 2.8 mL/h for 2 h after which, normal saline was infused at 2.8 mL/h for the remainder of the experiment. Lymph was continuously collected for up to 8 h into pre-weighed Eppendorf tubes containing 10 μL of 1,000 IU/mL heparin. The collection tubes were changed hourly and lymph flow was measured gravimetrically. Aliquots of hourly lymph samples were stored at −20° C. prior to assay.
For most compounds, drug concentration in lymph is expressed as total drug and includes free drug and drug associated with different glycerides. Lymph samples were first treated with a lipase or other appropriate conditions to liberate free active agent prior to measurement of active agent levels in the lymph. Treatment with a lipase or other hydrolysis conditions liberates free active agent from any corresponding re-esterified glycerides. Porcine pancreatic lipase is appropriate for this purpose. Alternatively, hydrolysis with 0.5 M NaOH may be used.
For certain compounds, drug concentration was measured for the intact lipid prodrug specifically, without exposing the lymph samples to hydrolysis conditions.
Transport of compounds into lymph during each hourly collection period was calculated from the product of the volume of lymph collected and the measured concentrations in lymph. For fluorescent or fluorescently-labelled compounds, the concentrations of total compound may be measured by fluorescence spectroscopy without hydrolysis.
Table 5 summarizes lymphatic transport of total tofacitinib related compound (% of administered dose) following intraduodenal infusion to anaesthetised, mesenteric lymph-duct cannulated rats. Data are presented as mean±SD when n≥3 or mean± range when n=2. […]

[3] = tested on: plasma supplemented with lipoprotein lipase (LPL); experiment: In vitro release of therapeutic agent from prodrugs in plasma supplemented with lipoprotein lipase; assay type: in vitro ADME; conditions: rat and/or human plasma supplemented with LPL; for In vitro hydrolysis profile: conversion to monoglyceride form / In vitro hydrolysis profile: further conversion products: 37° C., 0-180 min
Description: In order to probe the release of free drug from TG prodrugs in the systemic circulation, prodrugs are incubated with plasma (rat, mouse, dog, pig or human) supplemented with lipoprotein lipase (LPL, 200 IU/ml). LPL is a key enzyme required for the hydrolysis of lipoprotein associated TG in the systemic circulation and is therefore expected to be a key contributor to lipolysis of the re-esterified drug-TG construct in plasma, largely via liberation of fatty acids in the sn-1 and the sn-3 position of the TG-mimetic, prior to drug release from the 2′ position via esterase hydrolysis. […] is tethered to the luminal surface of vascular endothelial cells under physiological conditions. In the current in vitro studies, plasma is therefore supplemented with LPL to better reflect the in vivo situation.
To start hydrolysis, 10 μl of LPL solution (10,000 IU/ml) was added to a mixture of 10 μl of prodrug solution (1 mg/ml dissolved in acetonitrile) and 500 μl of blank plasma. The mixture was incubated at 37° C. Samples (20 μl) of the incubation solution were taken at 0, 5, 15, 30, 60, 90, 120 and 180 minutes post-incubation and added to 180 μl of MeCN to stop lipolysis. The mixture was vortexed and centrifuged at 4500×g for 5 minutes to precipitate proteins prior to analysis. The supernatant was analyzed by HPLC-MS/MS for the potential products (MG form, acid form, and free drug) of prodrug hydrolysis.
The in vitro hydrolysis profile of selected prodrug compounds was determined in rat and/or human plasma supplemented with LPL. […] The acid intermediate was not observed for prodrug I-5. The acid intermediates are believed to have the structures shown in Table 6, below, based on HPLC-MS data.

[4] = total tofacitinib related compound (lymph hydrolysed before assay), lymph collected up to 8 h

Row | In vitro hydrolysis: acid intermediates [1] | Compound | In vitro hydrolysis: conversion to monoglyceride form [1] | In vitro hydrolysis: fate of the monoglyceride [1] | Cumulative lymphatic transport % dose [2, 4] | In vitro hydrolysis profile: conversion to monoglyceride form [3] | In vitro hydrolysis profile: further conversion products [3] | also measured
1 | not observed | CCCCCCCCCCCCCCCC(=O)OCC(COC(=O)CCCCCCCCCCCCCCC)OC(=O)CC(C)CC(=O)OC(C)n1ccc2c(N(C)[C@H]3CN(C(=O)CC#N)CC[C@H]3C)ncnc21 (stereo partly drawn) [I-5, 1-(1,3-bis(palmitoyloxy)propan-2-yl) 5-(1-(4-(((3R,4R)-1-(2-cyanoacetyl)-4-methylpiperidin-3-yl)(methyl)amino)-7H-pyrrolo[2,3-d]pyrimidin-7-yl)ethyl) 3-methylpentanedioate] | rapidly converted to the prodrug's monoglyceride form | converted to free parent tofacitinib over time | D (lymphatic transport assay result of less than 0.05% (<0.05%)) | rapidly converted into their monoglyceride form | further conversion to tofacitinib and an acid intermediate | In vitro hydrolysis profile: acid intermediate ([3]; HPLC-MS): not observed
2 | not observed | CCCCCCCCCCCCCCCC(=O)OCC(COC(=O)CCCCCCCCCCCCCCC)OC(=O)CC(C)CCCCCCCC(C)C(=O)n1ccc2c(N(C)[C@H]3CN(C(=O)CC#N)CC[C@H]3C)ncnc21 (stereo partly drawn) [I-6, 2-((12-(4-(((3R,4R)-1-(2-cyanoacetyl)-4-methylpiperidin-3-yl)(methyl)amino)-7H-pyrrolo[2,3-d]pyrimidin-7-yl)-3,11-dimethyl-12-oxododecanoyl)oxy)propane-1,3-diyl dipalmitate] | rapidly converted to the prodrug's monoglyceride form | converted to free parent tofacitinib over time | B (lymphatic transport assay result between 1% and 10% (1%-10%)) | rapidly converted into their monoglyceride form | further conversion to tofacitinib and an acid intermediate | –
3 | – | CCCCCCCC/C=C\CCCCCCCC(=O)OCC(COC(=O)CCCCCCC/C=C\CCCCCCCC)OC(=O)CC(C)CCCCCCCCCC(C)CC(=O)n1ccc2c(N(C)[C@H]3CN(C(=O)CC#N)CC[C@H]3C)ncnc21 (stereo partly drawn) [I-33, 2-((15-(4-(((3R,4R)-1-(2-cyanoacetyl)-4-methylpiperidin-3-yl)(methyl)amino)-7H-pyrrolo[2,3-d]pyrimidin-7-yl)-3,13-dimethyl-15-oxopentadecanoyl)oxy)propane-1,3-diyl dioleate] | – | – | A (lymphatic transport assay result of greater than 10% (>10%)) | – | – | –
4 | – | CCCCCCCCCCCCCCCC(=O)OCC(COC(=O)CCCCCCCCCCCCCCC)OC(=O)CC(C)CCCCCCCCCCC(C)C(=O)n1ccc2c(N(C)[C@H]3CN(C(=O)CC#N)CC[C@H]3C)ncnc21 (stereo partly drawn) [I-39, 2-((15-(4-(((3R,4R)-1-(2-cyanoacetyl)-4-methylpiperidin-3-yl)(methyl)amino)-7H-pyrrolo[2,3-d]pyrimidin-7-yl)-3,14-dimethyl-15-oxopentadecanoyl)oxy)propane-1,3-diyl dipalmitate] | – | – | – | – | – | Cumulative lymphatic transport % dose ([2]; marked with asterisk: analytical procedure without a hydrolysis step (intact lipid prodrug)): A* (lymphatic transport assay result of greater than 10% (>10%))
5 | – | CCCCCCCCCCCCCCCC(=O)OCC(COC(=O)CCCCCCCCCCCCCCC)OC(=O)CC(C)CC(=O)OC(C)OC(=O)n1ccc2c(N(C)[C@H]3CN(C(=O)CC#N)CC[C@H]3C)ncnc21 (stereo partly drawn) [I-40, 1-(1,3-bis(palmitoyloxy)propan-2-yl) 5-(1-((4-(((3R,4R)-1-(2-cyanoacetyl)-4-methylpiperidin-3-yl)(methyl)amino)-7H-pyrrolo[2,3-d]pyrimidine-7-carbonyl)oxy)ethyl) 3-methylpentanedioate] | – | – | D (lymphatic transport assay result of less than 0.05% (<0.05%)) | – | – | –
6 | – | C[C@@H]1CCN(C(=O)CC#N)C[C@@H]1N(C)c1ncnc2[nH]ccc12 [Tofacitinib, tofacitinib, reference compound] | – | – | – | – | – | Cumulative lymphatic transport % dose ([2]; numeric value for parent drug): <0.3 % dose; Cumulative lymphatic transport % dose ([2]; numeric value for parent drug, listed as tofacitinib): < 0.3 % dose
